# Experimental data published in patent EP0224596A1, “Use of dibenzocyclooctadiene lignans extracted from Schisandrae Fructus for the manufacture of a medicament for the treatment of hepatic failure” (priority 1985, dated 1986).
# Columns and labels:
# [1] = tested on: rats with acute hepatic failure; test: Survival ratio and serum GOT in acute hepatic failure induced by P. acnes + LPS; format: in vivo, male Wistar rats; conditions: for survival ratio: LPS on day seven, control 8.8%
# Experimental: Three groups of male Wistar rats were used. Each group included 45 rats. Each rat in all groups was injected with 10 mg/rat of P. acnes. Four days after, gomisin A (100mg/kg, […]) obtained in Production Example 3 were suspended in 2% Tween 80/saline and administered i.p. to respectively two of three groups. Only vehicle (2% Tween 80/saline) was administered i.p. to one remaining group as a control group. All rats were injected with 50µg/rat of LPS, seven days after the injection of P. acnes. Twenty-four hours after the injection of LPS, blood samples were collected from surviving rats by heart puncture, and serum GOT activities were measured. GOT is one of amino acid transferases contained in liver cells. High serum GOT activities reflect large number of destroyed liver cells.
# [2] = tested on: mice with acute hepatic failure; test: Effect on survival ratio of mice with acute hepatic failure (heat-killed P. acnes + LPS); format: in vivo, male balb/c strain mice; conditions: survival twenty-four hours after injection of LPS, control 7.5
# Experimental: Seven groups of male balb/c strain mice (six weeks of age) were used. Each group included 40 mice. Acute hepatic failure was induced by the injection of 1 µg/mouse of LPS (lipopolysaccharide, Difco Laboratories) to mice that had been injected with 1 mg/mouse of heat-killed P. acnes (Propionibacterium acnes, First Department of Biochemistry in Osaka City Univ. Medical School) seven days before. The above obtained compounds (deoxyschizandrin, gomisin N, schizandrin, gomisin A, q-schizandrin and wuweizisu C) which had been suspended in 0.5% CMC (carboxymethyl cellulose, Wako Junyaku Kogyo, Co. Ltd.), was given p.o. to each group eight hours after the injection of LPS. Only vehicle (CMC) was given p.o. to one remaining group as a control group.
# Survival ratio of mice was periodically examined twenty-four hours after induction of acute hepatic failure. Each dose of the above compounds and corresponding survival ratio twenty-four hours after the injection of LPS are shown in Table 1.
# [3] = Acute toxicity LD50, p.o.; conditions: mouse, in vivo, po; p.o. in ddY mice
# From the text: And estimated clinical daily doses of the present therapeutic drugs for patients with hepatic failure are also given in Table 2.
# [4] = dose 50 mg/kg p.o. in 0.5% CMC eight hours after LPS
# [5] = dose 20 mg/kg p.o. in 0.5% CMC eight hours after LPS
Compound,LD50 [3] [mg/kg],"Survival Ratio (%) [2, 4] [%]","Survival Ratio (%) [2, 5] [%]",also measured
"COc1cc2c(c(OC)c1OC)-c1c(cc3c(c1OC)OCO3)CC(C)C(C)(O)C2 (centres unmarked) [Gomisin A, gomisin A]",777,–,–,"survival ratio ([1]; 50mg/kg i.p. in 2% Tween 80/saline four days after P. acnes): 83.3%; survival ratio ([1]; 100mg/kg i.p. in 2% Tween 80/saline four days after P. acnes): 100%; average serum GOT activities ([1]; 100mg/kg i.p., surviving rats, twenty-four hours after injection of LPS, control 7000 IU): 140 IU; Survival Ratio (%) ([2]; dose 10 mg/kg p.o. in 0.5% CMC eight hours after LPS): 80%"
"COc1cc2c(c(OC)c1OC)-c1c(cc(OC)c(OC)c1OC)C[C@H](C)[C@H](C)C2 [Deoxyschizandrin, deoxyschizandrin]",2000,55,–,–
"COc1cc2c(c(OC)c1OC)-c1c(cc3c(c1OC)OCO3)CC(C)C(C)C2 (centres unmarked) [γ-Schizandrin, γ-schizandrin]",–,60,–,–
"COc1cc2c(c(OC)c1OC)-c1c(cc3c(c1OC)OCO3)CC(C)C(C)C2 (centres unmarked) [Gomisin N, gomisin N]",2000,–,80,–
"COc1cc2c(c(OC)c1OC)-c1c(cc(OC)c(OC)c1OC)C[C@](C)(O)[C@@H](C)C2 [Schizandrin, schizandrin]",1450,50,–,–
COc1c2c(cc3c1-c1c(cc4c(c1OC)OCO4)CC(C)C(C)C3)OCO2 (centres unmarked) [Wuweizisu C],2000,–,70,–
